The results in this text go back to PubChem BioAssay (NCI).

Common to all, as to test: inhibition of tumour cell growth, NCI panel, 48 h
The test system of assay [1] is BT-549 breast.
Assay [2] relates to IGROV1 ovarian.
For assay [3], the system named is COLO 205 colon.
For assay [4], the system named is OVCAR-3 ovarian.
Assay [5] deals with DU-145 prostate.
The subject of assay [6] is SF-295 CNS.
Assay [7] relates to MDA-MB-435.
Assay [8] relates to K-562 leukemia.
The test system of assay [9] is EKVX NSCLC.
In assay [10] the test system is NCI-H460 lung.

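Grown in 96-well plates, cells were treated for 48 hours with each compound at five concentrations. Insufficient inhibition: endpoint recorded as highest concentration tested. TGI is the concentration that stops growth completely.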

Take `N#CC1(C#N)NC(c2ccsc2)C(C#N)(C#N)NC1c1ccsc1` (stereo not given): the TGI in assay [1], in assay [2], in [3], in assay [4], in assay [5] and in assay [6] was above 100 µM in each case. Further, the TGI in assay [7], in assay [8], in assay [9] and in [10] was above 100 µM in each case.

As for `COc1cc(COC(=O)N2CCC2C(=O)O)c([N+](=O)[O-])cc1OC` (stereo not given), the TGI in [1], in [2], in assay [3], in assay [4], in [5] and in assay [6] was above 100 µM each time. For the same molecule, the TGI in [7], in [8], in assay [9] and in assay [10] was above 100 µM throughout.

In the case of `CNC1=CC(=O)C2=C(C1=O)[C@H]1CC[C@]3(C)C(=O)CC[C@H]3[C@@H]1CC2`, the TGI in assay [1] came to 36 µM; in assay [2], 16.1 µM; in assay [3], 33.3 µM; in [4], 9.3 µM; in assay [5] it was 28.8 µM; in assay [6], 29.1 µM. The TGI is 13.1 µM in [7], above 57.5 µM in assay [8], 29.9 µM in assay [9] and 39.5 µM in [10].

For `O=[N+]([O-])c1ccc2nc(/C=C(\O)c3ccc(F)cc3)c(/C=C(\O)c3ccc(F)cc3)nc2c1`, the TGI in assay [1] is 91.5 µM; in assay [2] it was above 100 µM; in [3], above 100 µM; in assay [4], above 100 µM; in assay [5], above 100 µM; in assay [6], 57.6 µM. The TGI in [7], in [8], in assay [9] and in assay [10] was above 100 µM each time.

Consider `COC(=O)c1csc(-c2nc(CCNC(=O)OC(C)(C)C)sc2Br)n1`, for which the TGI in [1], in assay [2], in [3], in [4], in assay [5] and in assay [6] was above 100 µM throughout. Further, the TGI in [7], in assay [8], in [9] and in [10] was above 100 µM in each case.

For the molecule `Cn1c2ccccc2c(=NNc2ccc(C(=O)O)cc2)c2ccccc21`, the TGI was 74.9 µM in assay [1]; 95 µM in assay [2]; 32.3 µM in assay [3]; 49.6 µM in [4]; 58 µM in assay [5]; 78.4 µM in assay [6]. In addition, the TGI in assay [7] turned out to be 34.3 µM; in assay [8], 23.3 µM; in assay [9] it was 32.2 µM; in assay [10] it was 43.5 µM.

Take `O=[N+]([O-])c1cccnc1NCC1(CO)CC(Cc2ccccc2)C1` (stereo not given): the TGI in assay [1], in assay [2], in [3], in [4], in [5] and in assay [6] was above 100 µM throughout. The TGI in assay [7], in [8], in [9] and in [10] was above 100 µM in each case.

As to `Cc1c(NC(=S)Nc2ccc(Cl)cc2)c(=O)n(-c2ccccc2)n1C`, the TGI in [1], in [2], in [3], in assay [4], in assay [5] and in [6] was above 100 µM in each case. Also, the TGI in [7], in assay [8], in [9] and in assay [10] was above 100 µM in each case.

In the case of `N/C(=N/n1c(=S)[nH]c2ccccc2c1=O)Nn1c(=S)[nH]c2ccccc2c1=O`, the TGI is 55.4 µM in assay [1]; above 100 µM in assay [2]; 77.6 µM in assay [3]; above 100 µM in assay [4]; above 100 µM in assay [5]; above 100 µM in assay [6]. For the same molecule, the TGI in assay [7] is above 100 µM; in assay [8], 83.6 µM; in assay [9], above 100 µM; in assay [10] it was above 100 µM.

As for `Cc1ccc(N=C2C(=O)C3=C(OC(C)(C)CC3)c3ccccc32)cc1`, the TGI in assay [1] was found to be 3.46 µM; in [2], 2.03 µM; in [3], 3.29 µM; in [4], 0.589 µM; in assay [5] it was 2.59 µM; in assay [6], 2.7 µM. Moreover, the TGI in assay [7] was 0.346 µM; in [8], 0.86 µM; in [9] it was 3.35 µM; in [10], 3.96 µM.

For `COC(=O)c1c(C)cccc1CC1Cc2c(C)cccc2C1=O` (stereo not given), the TGI in assay [1] is above 100 µM; in [2], above 100 µM; in assay [3], 48.3 µM; in assay [4], above 100 µM; in [5], above 100 µM; in assay [6] it was above 100 µM. Also, the TGI is 65.1 µM in assay [7], above 100 µM in assay [8], above 100 µM in [9] and above 100 µM in assay [10].

Regarding `CNC(=S)N/N=C/c1cccc(C)n1`, the TGI in assay [1] is 86.3 µM; in [2], above 100 µM; in assay [3], above 85.2 µM; in assay [4] it was above 100 µM; in assay [5] it was above 83.2 µM; in assay [6], above 100 µM. Further, the TGI in [7] is above 100 µM; in assay [8], above 100 µM; in assay [9], above 100 µM; in assay [10] it was 60.9 µM.

Take `CC(=O)OCC1=C(C)C(OC(=O)C(OC(C)=O)[C@@H](NC(=O)c2ccccc2)c2ccccc2)CCC1(C)C` (stereo not given in full): the TGI in assay [1], in assay [2], in assay [3], in [4], in [5] and in [6] was above 100 µM each time. Further, the TGI in assay [7], in assay [8], in [9] and in assay [10] was above 100 µM in each case.

Turning to `COc1ccc(N=C(Nc2ccc(OC)cc2)C(=Nc2ccc(OC)cc2)Nc2ccc(OC)cc2)cc1`, the TGI in assay [1], in assay [2], in [3], in assay [4], in assay [5] and in assay [6] was above 100 µM each time. Also, the TGI in [7], in assay [8], in assay [9] and in assay [10] was above 100 µM each time.
